Tests used:
[1] = target: T1, mannose-binding protein (MBP) (Rattus norvegicus, UniProt P19999); assay: Binding of AMM to mannose-binding protein (previously determined binding constant, used for the bound fraction); details: 1 mM MBP-A, 1 mM AMM; calculated from dissociation constant and concentrations
T1 construct: made in house; host or cells: E. coli JA221
Excerpt: Interpretation of residual dipolar contributions of a ligand in a protein-bound state will, in general, require separation of the contribution from the free state using known binding properties. The observed residual dipolar couplings measured in the AMM/MBP complex (Table 2, Dobs) will be a population weighted average from the free (Nfree) and bound (Nbound) states, such that: Dobs=NfreeDfree+NboundDbound (1) The fraction of AMM free and bound (Nfree and Nbound) can be calculated from the dissociation constant and known protein-ligand concentrations. Using a previously determined binding constant (approx. 1 mM) approximately 40% of AMM is in fact bound to MBP leaving approximately 60% of AMM free in solution. Order Tensor Calculation in AMM

[2] = target: T1, mannose-binding protein (MBP); details: AMM/MBP, previously determined; read-out: binding constant; cited from earlier work
[3] = target: T2, GnT-V (Homo sapiens, UniProt Q09328); details: cited from earlier work; for Kd: GnT-V, known binding constant
T2 construct: The soluble form of recombinant human GnT-V was expressed in CHO cells; made in house; host or cells: CHO cells
T2 sequence (Q09328 31-741 limits assumed): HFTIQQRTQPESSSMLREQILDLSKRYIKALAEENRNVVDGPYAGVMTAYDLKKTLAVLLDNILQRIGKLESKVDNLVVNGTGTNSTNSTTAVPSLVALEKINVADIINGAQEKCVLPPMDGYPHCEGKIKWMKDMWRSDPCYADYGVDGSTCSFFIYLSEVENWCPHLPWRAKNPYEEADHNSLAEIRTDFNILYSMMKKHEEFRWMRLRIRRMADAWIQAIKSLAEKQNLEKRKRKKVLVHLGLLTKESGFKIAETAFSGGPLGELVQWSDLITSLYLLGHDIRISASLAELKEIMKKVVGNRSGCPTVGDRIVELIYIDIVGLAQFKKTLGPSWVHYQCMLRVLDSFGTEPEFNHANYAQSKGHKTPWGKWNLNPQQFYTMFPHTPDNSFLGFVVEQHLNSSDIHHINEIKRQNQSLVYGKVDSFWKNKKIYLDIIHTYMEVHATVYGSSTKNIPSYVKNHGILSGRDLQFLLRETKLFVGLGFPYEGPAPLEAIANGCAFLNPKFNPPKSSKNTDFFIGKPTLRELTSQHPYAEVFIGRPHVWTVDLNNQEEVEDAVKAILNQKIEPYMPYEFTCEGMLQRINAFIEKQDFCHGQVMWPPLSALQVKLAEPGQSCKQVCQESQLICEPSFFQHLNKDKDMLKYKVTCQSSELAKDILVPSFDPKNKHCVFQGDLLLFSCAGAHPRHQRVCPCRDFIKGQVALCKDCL

| SMILES | fraction of AMM bound to MBP [1] | Kd [2] | Kd [3] | type of inhibition of GnT-V [3] |
| --- | --- | --- | --- | --- |
| COC1O[C@H](CO)[C@@H](O)[C@H](O)[C@@H]1O (stereo partly drawn) [AMM, α-methyl mannoside] | approximately 40% | ~1 mM |  |  |
| O=c1ccn([C@@H]2O[C@H](COP(=O)(O)OP(=O)(O)O)[C@@H](O)[C@H]2O)c(=O)[nH]1 [UDP, uridine diphosphate] |  |  | 1.1 mM | competitive inhibitor |
| CC(=O)N[C@H]1[C@@H](OP(=O)(O)OP(=O)(O)OC[C@H]2O[C@@H](n3ccc(=O)[nH]c3=O)[C@H](O)[C@@H]2O)O[C@H](CO)[C@@H](O)[C@@H]1O [UDP-GlcNAc] |  |  | 1.1 mM |  |

Reference: patent US7146277B2, “NMR assisted design of high affinity ligands for structurally uncharacterized proteins” (priority 2000, dated 2006)
